Data as given in PubChem BioAssay (NCI).
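Cells were grown in 96-well plates and exposed to each compound for 48 hours at five concentrations; endpoints were interpolated linearly between bracketing concentrations, or set to the highest concentration if not reached. TGI denotes the concentration required for complete inhibition of growth.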

How the values were obtained:
Experiment in all cases: NCI-60 cell line screen, 48 h
[1] = system: TK-10 renal
[2] = system: HCC-2998 colon
[3] = system: HOP-92 NSCLC
[4] = system: DU-145 prostate
[5] = system: MCF7 breast
[6] = system: UO-31 renal
[7] = system: SK-MEL-2 melanoma
[8] = system: K-562 leukemia
[9] = system: UACC-62 melanoma
[10] = system: NCI-H460 lung
[11] = system: MDA-MB-435
[12] = system: A498 renal
[13] = system: M14 melanoma
[14] = system: OVCAR-5 ovarian
[15] = system: SF-295 CNS
[16] = system: A549 NSCLC
[17] = system: IGROV1 ovarian

Compound	TGI [1] [µM]	TGI [2] [µM]	TGI [3] [µM]	TGI [4] [µM]	TGI [5] [µM]	TGI [6] [µM]	TGI [7] [µM]	TGI [8] [µM]	TGI [9] [µM]	TGI [10] [µM]	TGI [11] [µM]	TGI [12] [µM]	TGI [13] [µM]	TGI [14] [µM]	TGI [15] [µM]	TGI [16] [µM]	TGI [17] [µM]
O=C(NCCc1ccccn1)c1ccc2cc(C(=O)N3CC(CCl)c4ccc([N+](=O)[O-])cc43)[nH]c2c1 (configuration not stated)	66.7	> 100	52.1	> 100	> 100	> 92.8	> 100	> 100	> 67.4	> 100	> 100	> 100	> 100	> 100	> 68.5	> 100	> 100
Cc1ccc(NC(=O)CC(=O)N2N=C(N(c3ccccc3)c3ccccc3)CC2c2ccccc2)cc1 (configuration not stated)	> 100	> 100	> 100	> 100	> 100	> 100	> 100	> 100	> 100	> 100	> 100	> 100	> 100	> 100	> 100	> 100	> 100
CC(=O)O[C@H]1[C@@H](OC2CCCC2(c2ccccc2)c2ccccc2)O[N+]([O-])=C[C@@H]1c1ccccc1 (some centres not stated)	23.2	27.2	18.2	23.7	11.3	23.6	24.1	> 32.9	15.7	60.2	11.3	23.4	18.5	35.6	21.7	30.9	7.61
CC(=O)n1nc(-c2[nH]c(C)c(-c3nn(C(C)=O)c(=S)o3)c2C)oc1=S	> 100	> 100	> 100	> 100	> 100	> 100	> 100	> 100	> 100	> 100	> 100	> 100	> 100	> 100	> 100	> 100	> 100
CC(=O)Nn1c(Cc2ccc(Cl)cc2)nn(C)c1=O	> 100	> 100	> 100	> 100	> 100	> 100	> 100	> 100	> 100	> 100	> 100	> 100	> 100	> 100	> 100	> 100	> 100
O=C1NC(=Nc2ccccc2Cl)N/C1=C\c1c(Cl)cccc1Cl	71.7	55.3	61.8	> 100	> 100	66.3	> 100	> 100	> 100	68.2	> 100	> 100	> 100	83.7	> 100	> 100	> 100
NC(=S)NN=Cc1ccccc1OCc1cccc(COc2ccccc2C=NNC(N)=S)n1	32.3	> 100	14.3	> 45.6	> 100	> 93.5	33.7	> 100	> 100	> 100	> 100	47.7	> 100	> 100	20	> 100	31.6
CC(NC1=NCCO1)c1ccsc1 (configuration not stated)	> 100	> 100	92.5	> 100	> 100	> 100	50.2	68	34.3	33.2	43.1	> 100	35.4	> 100	39.4	> 100	> 100
O=c1c2c3c(sc2nc2n1sc1nc4sc5c(c4c(=O)n12)CCCC5)CCCC3	> 100	> 76.8	> 91.8	> 74.3	50.8	43.9	> 100	> 63.3	> 100	> 100	> 100	> 100	> 100	> 100	> 100	> 100	> 100
CC(=O)OC1CCn2c1nc1c2C(=O)C=C(N2CC2)C1=O (configuration not stated)	0.86	3.07	1.83	12.7	0.957	0.35	0.439	4.54	0.214	5.96	1.71	0.613	0.186	2.61	5.61	6.25	1.88
O=C(CNc1ccc([N+](=O)[O-])cc1)Nn1c(-c2ccccc2)nc2ccccc2c1=O	17	22.6	6.66	23.3	7.08	14.1	8.37	5.52	2.19	14.3	14.6	19.3	8.59	16.3	29.8	25.8	12.9
